In paper PMC7070898 (Clinical and Translational Science, 2019):

Assay: Safety and tolerability
Conditions: for Subjects with TEAEs: all evobrutinib doses pooled
[1] = one subject, 200 mg single dose, day 11
[2] = part 1 single dosing, pooled evobrutinib
[3] = part 2 multiple dosing, pooled evobrutinib

## C=CC(=O)N1CCC(CNc2ncnc(N)c2-c2ccc(Oc3ccccc3)cc2)CC1 [evobrutinib]
SAD 100 mg, n = 6
  TEAE: Abdominal pain: 0 (0.0) n (%), (number of events)
  TEAE: Amylase increased: 0 (0.0) n (%), (number of events)
  TEAE: Application site pruritus (due to ECG stickers): 0 (0.0) n (%), (number of events)
  TEAE: Back pain: 0 (0.0) n (%), (number of events)
  TEAE: Contact dermatitis: 0 (0.0) n (%), (number of events)
  TEAE: Dizziness: 0 (0.0) n (%), (number of events)
  TEAE: Dry eye: 0 (0.0) n (%), (number of events)
  TEAE: Dry mouth: 0 (0.0) n (%), (number of events)
  TEAE: Dyspepsia: 0 (0.0) n (%), (number of events)
  TEAE: Excoriation: 0 (0.0) n (%), (number of events)
  TEAE: Headache: 0 (0.0) n (%), (number of events)
  TEAE: Lipase increased: 0 (0.0) n (%), (number of events)
  TEAE: Multiple injuries: 0 (0.0) n (%), (number of events)
  TEAE: Nasal congestion: 1 (16.7) (1) n (%), (number of events)
  TEAE: Noncardiac chest pain: 0 (0.0) n (%), (number of events)
  TEAE: Odynophagia: 0 (0.0) n (%), (number of events)
  TEAE: Overall total: 1 (16.7) (1) n (%), (number of events)
  TEAE: URTI: 0 (0.0) n (%), (number of events)
SAD 200 mg, n = 6
  TEAE: Abdominal pain: 0 (0.0) n (%), (number of events)
  TEAE: Amylase increased: 1 (16.7) (1) n (%), (number of events)
  TEAE: Application site pruritus (due to ECG stickers): 0 (0.0) n (%), (number of events)
  TEAE: Back pain: 0 (0.0) n (%), (number of events)
  TEAE: Contact dermatitis: 0 (0.0) n (%), (number of events)
  TEAE: Dizziness: 1 (16.7) (1) n (%), (number of events)
  TEAE: Dry eye: 0 (0.0) n (%), (number of events)
  TEAE: Dry mouth: 0 (0.0) n (%), (number of events)
  TEAE: Dyspepsia: 0 (0.0) n (%), (number of events)
  TEAE: Excoriation: 1 (16.7) (1) n (%), (number of events)
  TEAE: Headache: 0 (0.0) n (%), (number of events)
  TEAE: Lipase increased: 1 (16.7) (1) n (%), (number of events)
  TEAE: Multiple injuries: 0 (0.0) n (%), (number of events)
  TEAE: Nasal congestion: 0 (0.0) n (%), (number of events)
  TEAE: Noncardiac chest pain: 0 (0.0) n (%), (number of events)
  TEAE: Odynophagia: 0 (0.0) n (%), (number of events)
  TEAE: Overall total: 2 (33.3) (4) n (%), (number of events)
  TEAE: URTI: 0 (0.0) n (%), (number of events)
SAD 350 mg, n = 6
  TEAE: Abdominal pain: 0 (0.0) n (%), (number of events)
  TEAE: Amylase increased: 0 (0.0) n (%), (number of events)
  TEAE: Application site pruritus (due to ECG stickers): 0 (0.0) n (%), (number of events)
  TEAE: Back pain: 0 (0.0) n (%), (number of events)
  TEAE: Contact dermatitis: 0 (0.0) n (%), (number of events)
  TEAE: Dizziness: 0 (0.0) n (%), (number of events)
  TEAE: Dry eye: 0 (0.0) n (%), (number of events)
  TEAE: Dry mouth: 0 (0.0) n (%), (number of events)
  TEAE: Dyspepsia: 0 (0.0) n (%), (number of events)
  TEAE: Excoriation: 0 (0.0) n (%), (number of events)
  TEAE: Headache: 0 (0.0) n (%), (number of events)
  TEAE: Lipase increased: 0 (0.0) n (%), (number of events)
  TEAE: Multiple injuries: 1 (16.7) (1) n (%), (number of events)
  TEAE: Nasal congestion: 0 (0.0) n (%), (number of events)
  TEAE: Noncardiac chest pain: 0 (0.0) n (%), (number of events)
  TEAE: Odynophagia: 0 (0.0) n (%), (number of events)
  TEAE: Overall total: 1 (16.7) (1) n (%), (number of events)
  TEAE: URTI: 0 (0.0) n (%), (number of events)
SAD 500 mg, n = 6
  TEAE: Abdominal pain: 0 (0.0) n (%), (number of events)
  TEAE: Amylase increased: 0 (0.0) n (%), (number of events)
  TEAE: Application site pruritus (due to ECG stickers): 0 (0.0) n (%), (number of events)
  TEAE: Back pain: 0 (0.0) n (%), (number of events)
  TEAE: Contact dermatitis: 0 (0.0) n (%), (number of events)
  TEAE: Dizziness: 0 (0.0) n (%), (number of events)
  TEAE: Dry eye: 1 (16.7) (1) n (%), (number of events)
  TEAE: Dry mouth: 0 (0.0) n (%), (number of events)
  TEAE: Dyspepsia: 0 (0.0) n (%), (number of events)
  TEAE: Excoriation: 0 (0.0) n (%), (number of events)
  TEAE: Headache: 1 (16.7) (1) n (%), (number of events)
  TEAE: Lipase increased: 0 (0.0) n (%), (number of events)
  TEAE: Multiple injuries: 0 (0.0) n (%), (number of events)
  TEAE: Nasal congestion: 0 (0.0) n (%), (number of events)
  TEAE: Noncardiac chest pain: 0 (0.0) n (%), (number of events)
  TEAE: Odynophagia: 1 (16.7) (1) n (%), (number of events)
  TEAE: Overall total: 2 (33.3) (3) n (%), (number of events)
  TEAE: URTI: 0 (0.0) n (%), (number of events)
SAD pooled active, n = 36
  TEAE: Abdominal pain: 0 (0.0) n (%), (number of events)
  TEAE: Amylase increased: 1 (2.8) (1) n (%), (number of events)
  TEAE: Application site pruritus (due to ECG stickers): 0 (0.0) n (%), (number of events)
  TEAE: Back pain: 1 (2.8) (1) n (%), (number of events)
  TEAE: Contact dermatitis: 2 (5.6) (2) n (%), (number of events)
  TEAE: Dizziness: 1 (2.8) (1) n (%), (number of events)
  TEAE: Dry eye: 1 (2.8) (1) n (%), (number of events)
  TEAE: Dry mouth: 0 (0.0) n (%), (number of events)
  TEAE: Dyspepsia: 1 (2.8) (1) n (%), (number of events)
  TEAE: Excoriation: 1 (2.8) (1) n (%), (number of events)
  TEAE: Headache: 2 (5.6) (3) n (%), (number of events)
  TEAE: Lipase increased: 1 (2.8) (1) n (%), (number of events)
  TEAE: Multiple injuries: 1 (2.8) (1) n (%), (number of events)
  TEAE: Nasal congestion: 1 (2.8) (1) n (%), (number of events)
  TEAE: Noncardiac chest pain: 0 (0.0) n (%), (number of events)
  TEAE: Odynophagia: 1 (2.8) (1) n (%), (number of events)
  TEAE: Overall total: 9 (25.0) (15) n (%), (number of events)
  TEAE: URTI: 0 (0.0) n (%), (number of events)
After SAD or MAD administrations
  nontolerated dose: no nontolerated dose could be defined
After multiple dosing
  Subjects with TEAEs: 48.1%
After single dosing
  Subjects with TEAEs: 25%
[1]
  toxicity grade of increased amylase: 3 grade
  toxicity grade of increased lipase (dose‐limiting TEAE): 4 grade
[2]
  Subjects with contact dermatitis at locations of ECG pads: 5.6%
  Subjects with headache: 5.6%
Part 2 multiple dosing
  severity of TEAEs: All TEAEs reported were mild and no dose‐limiting adverse events were reported
[3]
  Subjects with fatigue: 7.4%
  Subjects with gastrointestinal TEAEs: 18.5%
  Subjects with headache: 11.1%
  Subjects with skin irritation due to ECG pads: 7.4%
  Subjects with upper respiratory tract infection: 7.4%
Parts 1 and 2
  deaths or treatment-related SAEs: no deaths or SAEs related to treatment
